For data set [1], the system named is ACE. The conditions noted are these: cited from earlier work. From the text: Trp-Pro-Met-Gly-Phe (636.75 Da) is one such example, obtained from the trypsin hydrolysates of Cyclina sinensis, along with Val-Val-Ser-Leu-Ser-Ile-Pro-Arg (869.53 Da) which comes from pigeon pea seeds. There have been some ACE-inhibitory peptides reported to carry out their ACE-inhibitory activity through an uncompetitive pattern, including Ala-Trp, Phe-Tyr, and Ile-Trp which are derived from wakame hydrolysates of (Undaria pinnatifida) using protease, and also Phe-Glu-Ser-As ...

The subject of data set [2] is ACE. The conditions noted are these: cited from earlier work. The source says: For example, Phe-Leu was isolated from the hydrolysate of chum salmon muscle by Ono et al.. […] In addition, peptides offering antihypertensive capabilities obtained from ...
The source holds these as a separate data set.

A short description of data set [3]: Solubility in ultrapure water. The conditions noted are these: read-out: Solubility in ultrapure water (good solubility at concentrations not exceeding the value). The class given is physicochemical.
The target of data set [4] is T1, ACE (E.C. 3.4.15.1) derived from rabbit lungs (Oryctolagus cuniculus, UniProt P12822).
T1 construct: ACE (E.C. 3.4.15.1) derived from rabbit lungs; purchased Sigma Chemical Co. (St. Louis, MO, USA); host or cells: rabbit lung tissue
T1 sequence (P12822 34-1310): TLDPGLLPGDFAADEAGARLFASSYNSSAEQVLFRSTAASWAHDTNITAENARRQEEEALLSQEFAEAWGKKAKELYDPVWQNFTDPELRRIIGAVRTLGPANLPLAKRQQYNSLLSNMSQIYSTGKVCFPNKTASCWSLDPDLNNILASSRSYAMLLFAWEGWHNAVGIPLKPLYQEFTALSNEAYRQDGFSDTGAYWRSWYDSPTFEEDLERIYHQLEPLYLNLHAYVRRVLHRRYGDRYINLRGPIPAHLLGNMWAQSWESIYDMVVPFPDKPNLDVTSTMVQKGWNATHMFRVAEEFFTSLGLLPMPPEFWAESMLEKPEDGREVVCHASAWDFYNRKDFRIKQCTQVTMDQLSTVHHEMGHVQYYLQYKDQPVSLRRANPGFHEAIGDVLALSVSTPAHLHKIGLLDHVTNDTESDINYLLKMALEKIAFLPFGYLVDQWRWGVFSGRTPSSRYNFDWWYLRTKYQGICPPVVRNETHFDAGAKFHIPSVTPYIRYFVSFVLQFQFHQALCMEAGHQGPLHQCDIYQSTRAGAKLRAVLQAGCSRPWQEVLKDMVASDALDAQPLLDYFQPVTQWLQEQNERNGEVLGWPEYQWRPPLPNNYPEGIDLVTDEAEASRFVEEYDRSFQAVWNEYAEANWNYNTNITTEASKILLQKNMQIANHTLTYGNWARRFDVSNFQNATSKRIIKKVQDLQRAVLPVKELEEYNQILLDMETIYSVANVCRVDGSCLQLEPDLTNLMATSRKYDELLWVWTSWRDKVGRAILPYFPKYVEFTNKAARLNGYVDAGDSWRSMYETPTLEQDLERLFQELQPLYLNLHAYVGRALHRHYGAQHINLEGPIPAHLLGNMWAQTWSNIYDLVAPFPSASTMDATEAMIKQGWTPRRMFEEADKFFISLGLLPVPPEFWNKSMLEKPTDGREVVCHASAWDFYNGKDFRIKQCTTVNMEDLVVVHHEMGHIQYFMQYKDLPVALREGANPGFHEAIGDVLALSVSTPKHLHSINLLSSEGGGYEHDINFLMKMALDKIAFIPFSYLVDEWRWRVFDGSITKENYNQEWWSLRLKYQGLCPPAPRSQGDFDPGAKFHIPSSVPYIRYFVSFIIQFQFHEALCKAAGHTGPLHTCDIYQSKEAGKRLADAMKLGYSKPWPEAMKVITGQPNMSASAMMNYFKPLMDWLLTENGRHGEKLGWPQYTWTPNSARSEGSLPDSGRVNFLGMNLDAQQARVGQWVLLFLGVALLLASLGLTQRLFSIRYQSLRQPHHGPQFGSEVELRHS
Nature of the data set: ACE inhibition kinetics (Lineweaver-Burk). Format: biochemical. The conditions noted are these: secondary plot 1/Vmax vs peptide concentration; 37°C; n = 3. From the text:
(§1) The chemicals used in the study included ACE (E.C. 3.4.15.1) derived from rabbit lungs, acetonitrile, bovine serum albumin (BSA), captopril, dithiothreitol (DTT), hippuric acid, hippuryl-L-histidyl-L-leucine (HHL), o-phthaldehyde (OPA), sodium dodecyl sulfate (SDS), sodium tetraborate decahydrate, 2, 4, 6-trinitrobenzenesulfonic acid (TNBS), and Trypsin from porcine pancreas (1500 U/mg), all of which were obtained from Sigma Chemical Co. (St. Louis, MO, USA). In addition, dithiothreitol (DTT) and L-serine were purchased from Merck (Germany). All chemicals used were of analytical grade.
ACE-inhibition kinetics were evaluated using varied HHL concentrations (0.5, 1, 3, 5, and 7 mM) to which varied FCLYELAR peptide concentrations were introduced (0.05, 0.1 and 0.2 mM). The reaction assay required that the peptide concentrations which had been dissolved in PBS undergo incubation with the ACE solution which contained the different HHL concentrations which had been dissolved in the reaction buffer. Aliquots of sodium sulfite and TNBS were subsequently added prior to 80minutes of incubation at a temperature of 37°C, allowing the level of ACE-inhibitory activity to be evaluated. […] Secondary plots were then used to determine the inhibitor constant (Ki). […]

Data set [5] deals with T1, ACE (E.C. 3.4.15.1) derived from rabbit lungs. Nature of the data set: ACE-inhibitory activity assay (HHL substrate, TNBS). The class given is biochemical. Particulars: synthetic peptide, purity at least 95%; 5 mM HHL, pH 8.3, 37°C, 1 h, 420 nm.
From the text: as §1
The ACE -inhibition test was performed following the approach of Ibrahim et al.. At the beginning of the inhibition assay, a 10 μL aliquot of the peptide sample was added to 31 μL of 50 mM potassium phosphate buffer with a pH of 8.3 containing 0.3 M NaCl in each well of the 96-well microplate, while PBS was used for the control reaction. […] The ACE -inhibitory activity was determined by measuring the absorbance at 420 nm. […] The following Eq (3) was used to calculate the percentage of ACE -inhibitory activity: ACE-inhibitoryactivity%=C−Bi−S−Bs/C−Bi×100 (3) in which the absorbance of the control is given by C (100% activity), the sample (inhibitor peptide) is given by S, the blank inhibitor (HHL alone) is given by Bi, and the blank sample (peptide alone) is represented by Bs. […]

[6] abbreviates: hen egg white lysozyme (HEWL) hydrolysates.

Read-outs that look alike come from different tables or passages of the source. Ends that are not written are not given here. Where only a bound is given, the exact number is not on record here.

As for Phe-Tyr, the Inhibition pattern result in the data set with ACE [1] (wakame hydrolysates) is recorded as “uncompetitive”. “YLYEIARR [from the tryptic hydrolysate found in human plasma]”: the Inhibition pattern entry with ACE [1] (tryptic hydrolysate of human plasma) was “uncompetitive”.

For MELVLR [from Ulva intestinalis], the IC50 in the data set with ACE [2] (Ulva intestinalis) was 237 µM. On to “FGASTRGA [from Alaska pollack hydrolysates with pepsin]”, for which the IC50 in the data set with ACE [2] (Alaska pollack hydrolysate, pepsin) is 14.7 µM. “Gly-Asp-Leu-Gly-Lys-Thr-Thr-Thr-Val-Ser-Asn-Trp-Ser-Pro-Pro-Lys-Try-Lys-Asp-Thr-Pro [from tuna frame protein]”: the IC50 in the data set with ACE [2] (tuna frame protein) is 11.3 µM. Consider Ala-Trp, for which the Inhibition pattern result in the data set with ACE [1] (wakame hydrolysates) is given as “uncompetitive”. “MEVFVP [from flounder muscle hydrolysates]”: the IC50 in the data set with ACE [2] (flounder muscle hydrolysate) is 79 µM. Turning to “FCLYELAR [FCLYELAR, Phe-Cys-Leu-Tyr-Glu-Leu-Ala-Arg]”, the solubility in data set [3] is at least 5000 µg/mL. In data set [4], this substance showed a Ki of 24.8 µM. This substance also yielded an IC50 in data set [5] of 31.63 ± 0.15 µM.

As for “VSQLTR [from flounder muscle hydrolysates]”, the IC50 with ACE [2] (flounder muscle hydrolysate) was 105 µM. FGMPLDR [from Ulva intestinalis]: the IC50 with ACE [2] (Ulva intestinalis) was 219 µM. Turning to “FESNFNTQATNR [from lysozyme (HEWL) hydrolysates of hens’ eggs]”, in the data set with ACE [1] (setting [6]), the Inhibition pattern entry is recorded as “uncompetitive” and the Ki is 82 µg/mL. With “Trp-Pro-Met-Gly-Phe [from trypsin hydrolysates of Cyclina sinensis]”, the Inhibition pattern result with ACE [1] (Cyclina sinensis trypsin hydrolysates) is “competitive”.

With Ile-Trp, the Inhibition pattern result with ACE [1] (wakame hydrolysates) is on record as “uncompetitive”. As to VVSLSIPR [from pigeon pea seeds], in the data set with ACE [1] (pigeon pea seeds), the Inhibition pattern result is recorded as “competitive”.

Turning to Phe-Leu, in the data set with ACE [2] (chum salmon muscle hydrolysate, thermolysin), the IC50 is 13.6 µM.

One may read the IC50 as the concentration at which inhibition is half-maximal. A word on the Ki: it is a measure of affinity in units of concentration, obtained from inhibition or displacement.
